Results on one compound are retold here after patent publication US20030105144A1, “Stabilized oral pharmaceutical composition” (priority 2001, published 2003).

A value given as a limit tells only on which side of the number the result lay.

This series is described as follows: Solubility of celecoxib in PEG-400/water. It counts as physicochemical. Conditions: 2:1 mixture of PEG-400 and water. The procedure: Water-miscible, nonvolatile liquids such as polyethylene glycols have been successfully used in encapsulated solution formulations. Moreover, polyethylene glycols are also good solvents for drugs of low water solubility because they are known to improve aqueous drug solubility. For example, celecoxib, which has very low solubility in water, is highly soluble (>300 mg/g) in a 2:1 mixture of PEG-400 and water.

Take `Cc1ccc(-c2cc(C(F)(F)F)nn2-c2ccc(S(N)(=O)=O)cc2)cc1` [celecoxib, 4-[5-(4-methylphenyl)-3-(trifluoromethyl)-1H-pyrazol-1-yl]benzenesulfonamide]: the solubility is above 300 mg/g.
